Several values for one entry are separate records, joined by “and”; a condition that tells them apart may be missing. Identical values can stand only once.
Assay: HPLC-analysis of extracted lard with heating (Example 1; also reproducibility test)
Parameters: species or system pig
Protocol: The present Example illustrates the extraction on the entire sample of lard and the determination of indole and skatole by HPLC.
A sample of lard of 5 g is taken subcutaneously from the occipital region of a carcass. The sample is placed in a container and heated at 80° C. for 10 minutes in microwave oven in order to melt the fat. An amount of 5 ml of methanol is then added to the sample which is shaken, whereupon the sample is extracted for 10 minutes. Subsequently, the sample is filtered to remove the fat and connective tissue and analyzed by HPLC under the following conditions:
HPLC-apparatus: Merck HPLC with fluorescence detector and autosampler,
Eluant: water:methanol (20:80) (volume:volume)
Fluorescence detector: excitation wavelength=285 nm, emission wavelength=340 nm
Column: Lichrocart 250-4, Lichrospher 100 RP18, 5 micron, reverse phase
Injection volume: 20 microliter,
Detection limit: 5 ppb (0,005 ppm) in solution […]
The samples were such analyzed 10 times.

ppb skatole at HPLC-analysis, overall average (Table 2, 4 samples, n = 40): 48.47 ppb
ppb skatole at HPLC-analysis, lowest (Table 2, samples 1-4): 44.13 ppb and 43.87 ppb and 49.07 ppb
ppb skatole at HPLC-analysis, overall average (Table 3, 3 samples, n = 30): 71.38 ppb
ppb skatole at HPLC-analysis (Table 3, sample 3, analyses 1-10): 72.00 ppb and 69.33 ppb and 66.67 ppb
ppb skatole at HPLC-analysis, highest (Table 3, samples 1-3): 77.33 ppb and 74.67 ppb and 72.00 ppb
ppb skatole at HPLC-analysis, lowest (Table 3, samples 1-3): 69.33 ppb and 66.67 ppb
ppb skatole at HPLC-analysis, average per sample (Table 3, samples 1-3, 10 analyses each): 73.60 ppb and 70.13 ppb and 70.40 ppb
SMILES: Cc1c[nH]c2ccccc12 [Skatole, skatole]
ppb skatole at HPLC-analysis, highest (Table 2, samples 1-4): 50.00 ppb and 50.93 ppb and 52.80 ppb and 51.87 ppb
ppb skatole at HPLC-analysis, average per sample (Table 2, samples 1-4, 10 analyses each): 47.61 ppb and 47.63 ppb and 50.67 ppb and 47.96 ppb
ppb skatole at HPLC-analysis (Table 3, sample 1, analyses 1-10): 72.00 ppb and 69.33 ppb and 74.67 ppb and 77.33 ppb
ppb skatole at HPLC-analysis (Table 3, sample 2, analyses 1-10): 74.67 ppb and 69.33 ppb and 66.67 ppb and 72.00 ppb
